Experimental data as given in patent publication US9409905B2, “Antibacterial compounds and methods for use” (PTC THERAPEUTICS, INC., priority 2011, dated 2016).
≈ marks a conversion by molar mass, not a printed value.

Columns and labels:
[1] = system: Escherichia coli (E. coli) BAS849; experiment: Antibacterial activity, microbroth dilution MIC (Table 1); assay type: cell-based; conditions: microbroth dilution, super sensitive Gram-negative E. coli BAS849, read-out: MIC, BAS849
Description: (§1) The antibacterial activity from a microbroth dilution method may be presented as the minimum inhibitory concentration (MIC in μg/mL). The MIC value is the lowest concentration of drug which prevents macroscopically visible growth under test conditions.
(§2) Antibacterial activity of test compounds against the super sensitive Gram-negative Escherichia coli (E. coli) BAS849 bacterium, the control Gram-negative E. coli 25922 strain and the Gram-positive Staphylococcus aureus (S. aureus) 29213 bacterium are shown in Table 1.

[2] = system: Staphylococcus aureus (S. aureus) 29213; experiment: as above; assay type: cell-based; conditions: microbroth dilution, Gram-positive S. aureus 29213, read-out: MIC, 29213
Description: as §1, §2

[3] = system: E. coli 25922; experiment: as above; assay type: cell-based, Escherichia coli; conditions: Escherichia coli; microbroth dilution; control Gram-negative E. coli 25922 strain; read-out: MIC, 25922
Description: as §1, §2

[4] = system: E. coli LZ3111; experiment: Antibacterial activity, MIC, quinolone resistant strain (Table 2); assay type: cell-based; conditions: Escherichia coli, LZ3111, read-out: MIC LZ3111
Description: as §1
Mutations in these regions are known to confer a high level resistance to the quinolone class of antibiotics.

SMILES	MIC [1]	MIC [2]	MIC [3]	MIC [4]
CCc1cc(C(=O)O)c(=O)[nH]c1-c1ccc2c(c1)cc(CN1C[C@@H](C)O[C@@H](C)C1)n2C [Cpd 138, 6-(2-((cis-2,6-dimethylmorpholino)methyl)-1-methyl-1H-indol-5-yl)-5-ethyl-2-oxo-1,2-dihydropyridine-3-carboxylic acid]	< 1 µg/mL	12.5 to 150 µg/mL (≈ 29.5 to 354 µM)	3.5 to 12.5 µg/mL (≈ 8.26 to 29.5 µM)	12.5 to 150 µg/mL (≈ 29.5 to 354 µM)
CCc1cc(C(=O)O)c(=O)[nH]c1-c1ccc2c(c1)cc(CNC)n2C [Cpd 112, 5-ethyl-6-(1-methyl-2-((methylamino)methyl)-1H-indol-5-yl)-2-oxo-1,2-dihydropyridine-3-carboxylic acid]	< 1 µg/mL	12.5 to 150 µg/mL (≈ 36.8 to 442 µM)	< 1 µg/mL	12.5 to 150 µg/mL (≈ 36.8 to 442 µM)
CCc1c(-c2ccc3c(c2)cc(CN[C@H]2[C@@H]4CNC[C@@H]42)n3C)[nH]c(=O)c(C(=O)O)c1O [Cpd 198, 6-(2-(((1R,5S,6s)-3-azabicyclo[3.1.0]hexan-6-ylamino)methyl)-1-methyl-1H-indol-5-yl)-5-ethyl-4-hydroxy-2-oxo-1,2-dihydropyridine-3-carboxylic acid]	1 to 3.5 µg/mL (≈ 2.37 to 8.28 µM)	12.5 to 150 µg/mL (≈ 29.6 to 355 µM)	12.5 to 150 µg/mL (≈ 29.6 to 355 µM)	12.5 to 150 µg/mL (≈ 29.6 to 355 µM)
CCc1c(-c2ccc3c(c2)cc(CN2CCC(N(C)C)C2)n3C)[nH]c(=O)c(C(=O)O)c1N (stereo not drawn) [Cpd 332, 4-amino-6-(2-((3-(dimethylamino)pyrrolidin-1-yl)methyl)-1-methyl-1H-indol-5-yl)-5-ethyl-2-oxo-1,2-dihydropyridine-3-carboxylic acid]	3.5 to 12.5 µg/mL (≈ 8 to 28.6 µM)	12.5 to 150 µg/mL (≈ 28.6 to 343 µM)	12.5 to 150 µg/mL (≈ 28.6 to 343 µM)	12.5 to 150 µg/mL (≈ 28.6 to 343 µM)
CCc1cc(C(=O)O)c(=O)[nH]c1-c1ccc2c(c1)cc(CN1CCN(C(C)C)CC1)n2C [Cpd 141, 5-ethyl-6-(2-((4-isopropylpiperazin-1-yl)methyl)-1-methyl-1H-indol-5-yl)-2-oxo-1,2-dihydropyridine-3-carboxylic acid]	< 1 µg/mL	12.5 to 150 µg/mL (≈ 28.6 to 344 µM)	1 to 3.5 µg/mL (≈ 2.29 to 8.02 µM)	12.5 to 150 µg/mL (≈ 28.6 to 344 µM)
CCc1c(-c2ccc3c(c2)cc(CN2CCC[C@H]2CNc2ccccc2)n3C)[nH]c(=O)c(C(=O)O)c1O [Cpd 266, (S)-5-ethyl-4-hydroxy-6-(1-methyl-2-((2-((phenylamino)methyl)pyrrolidin-1-yl)methyl)-1H-indol-5-yl)-2-oxo-1,2-dihydropyridine-3-carboxylic acid]	< 1 µg/mL	< 1 µg/mL	12.5 to 150 µg/mL (≈ 25 to 300 µM)	12.5 to 150 µg/mL (≈ 25 to 300 µM)
CCc1cc(C(=O)O)c(=O)[nH]c1-c1cnc2c(c1)OCCN2C [Cpd 58, 5-ethyl-6-(4-methyl-3,4-dihydro-2H-pyrido[3,2-b][1,4]oxazin-7-yl)-2-oxo-1,2-dihydropyridine-3-carboxylic acid]	3.5 to 12.5 µg/mL (≈ 11.1 to 39.6 µM)	12.5 to 150 µg/mL (≈ 39.6 to 476 µM)	12.5 to 150 µg/mL (≈ 39.6 to 476 µM)	12.5 to 150 µg/mL (≈ 39.6 to 476 µM)
CCc1cc(C(=O)O)c(=O)[nH]c1-c1cc2cc(CN(C)C)n(C)c2cc1Cl [Cpd 93, 6-(6-chloro-2-((dimethylamino)methyl)-1-methyl-1H-indol-5-yl)-5-ethyl-2-oxo-1,2-dihydropyridine-3-carboxylic acid]	12.5 to 150 µg/mL (≈ 32.2 to 387 µM)	12.5 to 150 µg/mL (≈ 32.2 to 387 µM)	12.5 to 150 µg/mL (≈ 32.2 to 387 µM)	12.5 to 150 µg/mL (≈ 32.2 to 387 µM)
CCc1c(-c2ccc3c(c2)cc(CNCc2ccccc2F)n3C)[nH]c(=O)c(C(=O)O)c1O [Cpd 299, 5-ethyl-6-(2-((2-fluorobenzylamino)methyl)-1-methyl-1H-indol-5-yl)-4-hydroxy-2-oxo-1,2-dihydropyridine-3-carboxylic acid]	< 1 µg/mL	1 to 3.5 µg/mL (≈ 2.22 to 7.79 µM)	1 to 3.5 µg/mL (≈ 2.22 to 7.79 µM)	12.5 to 150 µg/mL (≈ 27.8 to 334 µM)
CC(C)c1c(-c2ccc3c(c2)cc(CNCC2CC2)n3C)[nH]c(=O)c(C(=O)O)c1O [Cpd 321, 6-(2-((cyclopropylmethylamino)methyl)-1-methyl-1H-indol-5-yl)-4-hydroxy-5-isopropyl-2-oxo-1,2-dihydropyridine-3-carboxylic acid]	< 1 µg/mL	3.5 to 12.5 µg/mL (≈ 8.55 to 30.5 µM)	1 to 3.5 µg/mL (≈ 2.44 to 8.55 µM)	12.5 to 150 µg/mL (≈ 30.5 to 366 µM)
CCc1c(-c2ccc3c(c2)cc(CN(CC2CC2)C2CCCNC2)n3C)[nH]c(=O)c(C(=O)O)c1O (stereo not drawn) [Cpd 265, 6-(2-(((cyclopropylmethyl)(piperidin-3-yl)amino)methyl)-1-methyl-1H-indol-5-yl)-5-ethyl-4-hydroxy-2-oxo-1,2-dihydropyridine-3-carboxylic acid]	1 to 3.5 µg/mL (≈ 2.09 to 7.31 µM)	1 to 3.5 µg/mL (≈ 2.09 to 7.31 µM)	12.5 to 150 µg/mL (≈ 26.1 to 313 µM)	12.5 to 150 µg/mL (≈ 26.1 to 313 µM)
CCc1c(-c2ccc3c(c2)cc(CNC(C)(C)c2ccccc2)n3C)[nH]c(=O)c(C(=O)O)c1O.Cl [Cpd 217, 5-ethyl-4-hydroxy-6-(1-methyl-2-((2-phenylpropan-2-ylamino)methyl)-1H-indol-5-yl)-2-oxo-1,2-dihydropyridine-3-carboxylic acid hydrochloride]	< 1 µg/mL	1 to 3.5 µg/mL	1 to 3.5 µg/mL	12.5 to 150 µg/mL
CCc1cc(C(=O)O)c(=O)[nH]c1-c1ccc2c(c1)cc1n2CCNC1 [Cpd 66, 5-ethyl-2-oxo-6-(1,2,3,4-tetrahydropyrazino[1,2-a]indol-8-yl)-1,2-dihydropyridine-3-carboxylic acid]	< 1 µg/mL	12.5 to 150 µg/mL (≈ 37.1 to 445 µM)	< 1 µg/mL	12.5 to 150 µg/mL (≈ 37.1 to 445 µM)
CCc1c(-c2ccc3c(c2)cc(CN2C[C@H]4CCC[C@@H](N(C)Cc5ccccc5)[C@H]4C2)n3C)[nH]c(=O)c(C(=O)O)c1O [Cpd 280, 6-(2-(((3aR,4R,7aS)-4-(benzyl(methyl)amino)-1H-isoindol-2(3H,3aH,4H,5H,6H,7H,7aH)-yl)methyl)-1-methyl-1H-indol-5-yl)-5-ethyl-4-hydroxy-2-oxo-1,2-dihydropyridine-3-carboxylic acid]	< 1 µg/mL	1 to 3.5 µg/mL (≈ 1.76 to 6.15 µM)	12.5 to 150 µg/mL (≈ 22 to 264 µM)	12.5 to 150 µg/mL (≈ 22 to 264 µM)
CCc1c(-c2ccc3c(c2)cc(CNC2CN(C)C2)n3C)[nH]c(=O)c(C(=O)O)c1O.Cl.Cl [Cpd 246, 5-ethyl-4-hydroxy-6-(1-methyl-2-((1-methylazetidin-3-ylamino)methyl)-1H-indol-5-yl)-2-oxo-1,2-dihydropyridine-3-carboxylic acid dihydrochloride]	1 to 3.5 µg/mL	12.5 to 150 µg/mL	12.5 to 150 µg/mL	3.5 to 12.5 µg/mL
CCc1cc(C(=O)O)c(=O)[nH]c1-c1ccc2c(c1)cc(C1=NCCN1)n2C [Cpd 85, 6-(2-(4,5-dihydro-1H-imidazol-2-yl)-1-methyl-1H-indol-5-yl)-5-ethyl-2-oxo-1,2-dihydropyridine-3-carboxylic acid]	1 to 3.5 µg/mL (≈ 2.74 to 9.6 µM)	12.5 to 150 µg/mL (≈ 34.3 to 412 µM)	12.5 to 150 µg/mL (≈ 34.3 to 412 µM)	12.5 to 150 µg/mL (≈ 34.3 to 412 µM)
CCc1cc(C(=O)O)c(=O)[nH]c1-c1cnc2[nH]ccc2c1 [Cpd 55, 5-ethyl-2-oxo-6-(1H-pyrrolo[2,3-b]pyridin-5-yl)-1,2-dihydropyridine-3-carboxylic acid]	12.5 to 150 µg/mL (≈ 44.1 to 529 µM)	12.5 to 150 µg/mL (≈ 44.1 to 529 µM)	12.5 to 150 µg/mL (≈ 44.1 to 529 µM)	12.5 to 150 µg/mL (≈ 44.1 to 529 µM)
CCc1cc(C(=O)O)c(=O)[nH]c1-c1ccc2c(c1)cc(C1CNCCN1C)n2C.Cl.Cl (stereo not drawn) [Cpd 71, 5-ethyl-6-(1-methyl-2-(1-methylpiperazin-2-yl)-1H-indol-5-yl)-2-oxo-1,2-dihydropyridine-3-carboxylic acid dihydrochloride]	3.5 to 12.5 µg/mL	12.5 to 150 µg/mL	12.5 to 150 µg/mL	12.5 to 150 µg/mL
